Publication PMC12636382, “Human and zebrafish mineralocorticoid receptors reporter cell assays to assess the activity of chemicals” (iScience, 2025)
“And” between values parts separate entries of the source, which are not always exact repeats. Identical values can stand only once. Like-named read-outs stand apart in the source and are kept apart here.

Columns and labels:
zebrafish MR (zfMR) = zebrafish MR (zfMR) (Danio rerio, UniProt A6YIH7); experiment: UG5LN-GAL4-zfMR luciferase reporter cell assay (agonism and antagonism tests); format: cell-based; settings: for EC50: agonism test, chemical alone, mean of at least three experiments, read-out: EC50
Sequence of zebrafish MR (zfMR) (A6YIH7 entry or part of it): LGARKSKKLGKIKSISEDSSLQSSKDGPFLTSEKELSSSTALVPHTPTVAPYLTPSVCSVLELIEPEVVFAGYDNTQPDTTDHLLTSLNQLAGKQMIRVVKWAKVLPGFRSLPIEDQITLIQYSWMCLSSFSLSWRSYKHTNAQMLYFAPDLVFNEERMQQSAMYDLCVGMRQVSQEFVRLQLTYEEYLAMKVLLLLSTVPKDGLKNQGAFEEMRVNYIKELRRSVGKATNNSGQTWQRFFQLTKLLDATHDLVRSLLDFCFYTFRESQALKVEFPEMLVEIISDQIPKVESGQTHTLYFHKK
Experimental: (§1) The U2OS cells used to establish the MR reporter cell lines were obtained from and verified by ECACC (UK Health Security Agency, Porton Down, Salisbury, UK). The strategy used has been described previously to establish other NR-based cell lines.[42] First, the different pSG5-GAL4(DBD)-MRs (LBD) and (GAL4RE)5βGlob-Luc-SVNeo plasmids were tested by transient transfections in U2OS. Then, the UG5LN-GAL4-hMR and UG5LN-GAL4-zfMR clonal cells were generated in two steps. The first step was to establish clonal UG5LN cells by a stable transfection of U2OS cells, considered as steroid receptor negative, with the plasmid (GAL4RE)5βGlob-Luc-SVNeo. The second step consisted of the transfection of UG5LN cells with the plasmids pSG5-GAL4(DBD)-hMR(LBD)-puro, pSG5-GAL4(DBD)-hMRT870L(LBD)-puro or pSG5-GAL4(DBD)-zfMR(LBD)-puro, to generate UG5LN-GAL4-hMR, UG5LN-GAL4-hMRT870L and UG5LN-GAL4-zfMR clonal cells, respectively. Stable cell clones were selected in the presence of puromycin 0.5 μg/mL and G418 1 mg/mL. For each receptor, 5 to 10 clones were chosen for their ligand-induced luciferase expression. The clones were amplified and luciferase expression was checked at several passages. For each receptor, the clone with the best induction of luciferase activity was selected and used for the screening of the different chemicals. The stability and the inducibility of luciferase expression were checked during at least 20 passages (20 weeks).
(§2) To perform the reporter gene assay, cells were seeded in 96-wells white transparent culture plates (Greiner bio-one 655098CellStar; Dutscher, Brumath, France) at a density of 60,000 cells per well in 150 μL of culture medium and incubated at 37°C and 5% CO2 for 24 h. Then, after the attachment period, medium was removed and cells were exposed to increasing dilutions of the tested compounds in the experimental medium (DMSO; final concentration 0.1% v/v for chemicals and 0.3% v/v for water sample extracts) and incubated at 37°C and 5% CO2. After 24 h, medium was removed and replaced with 50 μL/well of experimental medium containing 0.3 mM luciferin. The luminescence signal was monitored in intact live cells for 2 s per well using a MicroBeta Wallac luminometer (PerkinElmer, Courtaboeuf, France). All experiments were performed in quadruplicate.
(§3) The quantification and statistical analysis are integral parts of the software used (GraphPad Prism 10, GraphPad Software Inc). The compounds were tested at different concentrations in at least three independent experiments. In each experiment, the compounds were tested in quadruplicate for each concentration, and the data were expressed as averages of the quadruplicates with their standard deviation to obtain a single value for that experimental series. Then, individual dose-response curves for each chemical were fitted from the averages of the three individual experiments using the sigmoidal dose-response function of the graphics and statistics software program GraphPad. Specifically, GraphPad employs nonlinear regression with the least squares method to fit the data to a sigmoidal function (based on the Hill equation). This method is used to determine the optimal parameter values, such as the Half Maximal Effective concentration (EC50) for agonist and the Half Maximal Inhibitory Concentration (IC50) for antagonist. […] Once the best-fit curve was obtained, the confidence intervals (e.g., 95% CI) for these parameters were estimated based on the uncertainty (variance) derived from the regression model, and the lower and upper 95% confidence limits of EC50s and IC50s were reported.

human MR (hMR) = molecular target: T1, human MR (hMR) (Homo sapiens, UniProt P08235); experiment: UG5LN-GAL4-hMR luciferase reporter cell assay (agonism and antagonism tests); format: cell-based; settings: for % min act: % of maximal luciferase activity induced by 10^−8 M aldosterone
T1 construct: hMR(LBD) (G671-K894) and zfMR(LBD) (L668-K970) have been amplified by PCR; expressed in transfected cells
T1 sequence (P08235 671-984 limits assumed): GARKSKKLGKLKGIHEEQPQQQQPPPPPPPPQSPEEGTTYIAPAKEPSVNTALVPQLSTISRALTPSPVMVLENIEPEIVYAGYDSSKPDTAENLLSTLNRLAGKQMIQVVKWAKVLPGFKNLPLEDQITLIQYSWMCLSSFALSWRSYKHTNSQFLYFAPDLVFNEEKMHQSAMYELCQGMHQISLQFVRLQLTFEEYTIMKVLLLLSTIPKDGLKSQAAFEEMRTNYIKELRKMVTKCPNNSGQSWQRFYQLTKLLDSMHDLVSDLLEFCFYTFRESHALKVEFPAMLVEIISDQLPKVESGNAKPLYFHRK
Experimental: as §1, §2, §3

[1] = in words, UG5LN-GAL4-zfMR cells
[2] = environmental chemicals at 10^−5 M, antagonism test
[3] = environmental chemicals, antagonism test with aldosterone 10^−9 M, UG5LN-GAL4-hMR, read-out: IC50
[4] = environmental chemicals, antagonism test with aldosterone 0.5 10^−9 M, UG5LN-GAL4-zfMR, read-out: IC50
[5] = antagonism test, in presence of aldosterone 10^−9 M, UG5LN-GAL4-hMR cells, read-out: IC50
[6] = antagonism test, in presence of aldosterone 0.5 10^−9 M, UG5LN-GAL4-zfMR cells, read-out: IC50
[7] = antagonism test with aldosterone 10^−9 M, at 10^−5, 10^−6 or 10^−7 M depending on chemical

Row | Molecule | activity profile on zfMR (agonist / partial agonist / antagonist) (zebrafish MR (zfMR); [1]) | % min act (human MR (hMR); [2]) [%] | IC50 (human MR (hMR); [3]) [nM] | % min act (zebrafish MR (zfMR)) [%] | IC50 (zebrafish MR (zfMR); [4]) [nM] | other results
1 | 17α-hydroxyprogesterone [17α-hydroxy progesterone] | full agonists | – | – | – | – | % max act (zebrafish MR (zfMR)): 97.6 ± 1.2%; EC50 (zebrafish MR (zfMR); UG5LN-GAL4-zfMR cells, listed as 17-α-hydroxy progesterone): 0.24 nM; EC50 (zebrafish MR (zfMR); UG5LN-GAL4-zfMR cells, listed as 17α-hydroxyprogesterone): 0.2 nM
2 | ClC(Cl)=C(c1ccc(Cl)cc1)c1ccccc1Cl [2,4′-DDE, 2,4′DDE] | – | 8.3 ± 1.2 | 470 | 34.8 ± 6.6 | 6900 | –
3 | CC(C)(c1ccc(O)cc1)c1ccc(O)c(Cl)c1 [2-chloro-bisphenol A] | – | 12 ± 8.7 | 1360 | – | 4300 | % min act (zebrafish MR (zfMR); environmental chemicals at 10^−5 M, antagonism test, % of maximal luciferase activity induced by 10^−8 M aldosterone): 13.2 ± 1.3%
4 | CC(C)(C)CC(C)(C)c1ccc(O)cc1 [4-tert-octylphenol] | – | – | 2120 | – | 15800 | –
5 | C[C@]12CCC(=O)C=C1CC[C@@H]1[C@@H]2CC[C@@]2(C)[C@H]1CC[C@]2(O)C(=O)CO [11-deoxycortisol] | partially activate | – | – | – | – | IC50 (human MR (hMR); [5]): 4.4 nM and 4.41 nM; activity profile on hMR (agonist / partial agonist / antagonist) (human MR (hMR); in words, UG5LN-GAL4-hMR cells): complete antagonists; EC50 (zebrafish MR (zfMR); UG5LN-GAL4-zfMR cells): 0.73 nM; REP (relative potency) (zebrafish MR (zfMR); ratio of EC50 values aldosterone/chemical, aldosterone set at 1): 0.41
6 | Oc1ccc(C(c2ccc(O)cc2)C(Cl)(Cl)Cl)cc1 [HPTE] | – | 12.3 ± 1.5 | 2060 | 51 ± 6.8 | 11100 | –
7 | ClC1=C(Cl)C2(Cl)C3C4C=CC(C4)C3C1(Cl)C2(Cl)Cl (stereo not shown) [aldrin] | – | – | 390 | – | 2170 | –
8 | CC(C)(c1ccc(O)cc1)c1ccc(O)cc1 [bisphenol A, Bisphenol A] | – | – | 2280 | – | 5150 | –
9 | C[C@]12CCC(=O)C=C1C=C[C@@H]1[C@@H]2CC[C@@]2(C)[C@H]1CC[C@@]21CCC(=O)O1 [canrenone] | full antagonists | – | – | – | – | IC50 (human MR (hMR); [5]): 17 nM and 16.7 nM; activity profile on hMR (agonist / partial agonist / antagonist) (human MR (hMR); in words, UG5LN-GAL4-hMR cells): full antagonists; IC50 (zebrafish MR (zfMR); [6]): 18 nM and 18.4 nM
10 | O=C1C2(Cl)C3(Cl)C4(Cl)C(Cl)(Cl)C5(Cl)C3(Cl)C1(Cl)C5(Cl)C24Cl (stereo not shown) [chlordecone] | – | 8.4 ± 1 | 1210 | 28.6 ± 0.3 | 5590 | –
11 | C[C@]12CCC(=O)C[C@@H]1CC[C@@H]1[C@@H]2CC[C@]2(C)[C@@H](O)CC[C@@H]12 [dihydrotestosterone] | – | – | – | – | – | activity profile on hMR (agonist / partial agonist / antagonist) (human MR (hMR)): full antagonists; IC50 (human MR (hMR); IC50): 60 nM; activity profile on zfMR (agonist / partial agonist / antagonist) (zebrafish MR (zfMR)): full antagonists; IC50 (zebrafish MR (zfMR); IC50): 35 nM and 34.9 nM
12 | O=S1OCC2C(CO1)C1(Cl)C(Cl)=C(Cl)C2(Cl)C1(Cl)Cl (stereo not shown) [endosulfan] | – | – | 1010 | – | 8400 | –
13 | CC#C[C@]1(O)CC[C@H]2[C@@H]3CCC4=CC(=O)CCC4=C3[C@@H](c3ccc(N(C)C)cc3)C[C@@]21C [mifepristone] | full antagonists | – | – | – | – | activity profile on hMR (agonist / partial agonist / antagonist) (human MR (hMR); in words, UG5LN-GAL4-hMR cells): full antagonists; IC50 (zebrafish MR (zfMR); [6]): 1050 nM
14 | CC(=O)[C@H]1CC[C@H]2[C@@H]3CC=C4C[C@@H](O)CC[C@]4(C)[C@H]3CC[C@]12C [pregnenolone] | full antagonists | – | – | 4.1 ± 0.2 | – | % min act (human MR (hMR); [7]): 6.0 ± 1%; IC50 (human MR (hMR); [5]): 68 nM and 67.7 nM; activity profile on hMR (agonist / partial agonist / antagonist) (human MR (hMR); in words, UG5LN-GAL4-hMR cells): full antagonists; IC50 (zebrafish MR (zfMR); [6]): 166 nM
15 | CCCOCCN(C(=O)CCl)c1c(CC)cccc1CC [pretilachlore] | – | 21.5 ± 1.7 | 3510 | 21 ± 0.7 | 4710 | –
16 | CC(=O)[C@H]1CC[C@H]2[C@@H]3CCC4=CC(=O)CC[C@]4(C)[C@H]3CC[C@]12C [progesterone] | partially activate | – | – | – | – | –
17 | CCC(=O)[C@@]1(C)CC[C@H]2[C@@H]3CCC4=CC(=O)CCC4=C3CC[C@@]21C [promegestone] | full antagonists | – | – | – | – | IC50 (human MR (hMR); [5]): 169 nM; activity profile on hMR (agonist / partial agonist / antagonist) (human MR (hMR); in words, UG5LN-GAL4-hMR cells): full antagonists; IC50 (zebrafish MR (zfMR); [6]): 291 nM
18 | ClC1=C(Cl)[C@]2(Cl)[C@H]3[C@H]([C@H](Cl)C(Cl)[C@@H]3Cl)[C@@]1(Cl)C2(Cl)Cl (stereo partly shown) [transnonachlore] | – | 10 ± 0.9 | 610 | 57.8 ± 9 | – | –
19 | C=CC(C)(O)C(=O)Nc1cc(Cl)cc(Cl)c1 (stereo not shown) [vinclozoline M2, Vinclozolin M2] | – | 28 ± 3.3 | 5960 | 31 ± 0.5 | 7000 | –
20 | Bisphenol C | – | 51 ± 6 | 13200 | – | 11800 | –
21 | Nonylphenol mixture | – | 12 ± 2.5 | 1560 | 40.7 ± 4.8 | 9200 | –
22 | dihydroprogesterone | full antagonists | – | – | 5 ± 0.5 | – | % min act (human MR (hMR); [7]): 11 ± 2%; IC50 (human MR (hMR); [5]): 395 nM; activity profile on hMR (agonist / partial agonist / antagonist) (human MR (hMR); in words, UG5LN-GAL4-hMR cells): full antagonists; IC50 (zebrafish MR (zfMR); [6]): 186 nM
